Common to all, as to assay type: cell-based
For one assay, the system named is S. pneumoniae 1/1. Briefly: Antimicrobial susceptibility testing of streptococci (CLSI, Todd Hewitt Broth without blood). Conditions: Streptococcus pneumoniae, representative pathogens for ocular infections, read-out: Minimum Inhibitory Concentration (MIC) S. pneumoniae 1/1. Here is the method: (§1) Antimicrobial susceptibility testing was performed in accordance with the Clinical and Laboratory Standards Institute (CLSI). Clinical and Laboratory Standards Institute (CLSI; formerly NCCLS): Methods for Dilution Antimicrobial Susceptibility Tests for Bacteria That Grow Aerobically; Approved Standard—Seventh Edition (2006). Clinical and Laboratory Standards Institute document M7-A7. Streptococci (S. pneumoniae, S. pyogenes, S. viridans) were tested following the CLSI methodology with the exception that Todd Hewitt Broth without blood was used. Anaerobic bacteria (P. acnes, B. distasonis) were tested following CLSI (formerly NCCLS) guidelines except for using microbroth dilutions in Wilkins Chalgren Broth. National Committee for Clinical Laboratory Standards (NCCLS). Methods for Anti-microbial Susceptibility Testing of Anaerobic Bacteria; Approved Standard—Sixth Edition (2004). NCCLS document M11-A6.

For the next assay, the system named is S. viridans UHC7. The assay is described as above. Conditions: Streptococcus viridans, representative pathogens for dental infections, read-out: Minimum Inhibitory Concentration (MIC) S. viridans UHC7. Here is the method:
as §1

Another assay deals with S. pyogenes GAS-1. Described as above. Conditions: for MIC: Streptococcus pyogenes, GAS1, representative pathogens for ocular infections, read-out: Minimum Inhibitory Concentration (MIC) S. pyogenes GAS-1; for Minimum Inhibitory Concentration (MIC) S. pyogenes GAS-1: representative pathogens for skin infections. As for the experimental part:
as §1

In a further assay the test system is B. distasonis 5770. In words: Antimicrobial susceptibility testing of anaerobic bacteria (microbroth dilution, Wilkins Chalgren Broth). Conditions: Parabacteroides distasonis, representative pathogens for gastro-intestinal infections, read-out: Minimum Inhibitory Concentration (MIC) B. distasonis 5770. Here is the method: as §1, with “(CLSI).” for “(CLSI). Clinical and Laboratory Standards Institute (CLSI; formerly NCCLS): Methods for Dilution Antimicrobial Susceptibility Tests for Bacteria That Grow Aerobically; Approved Standard—Seventh Edition (2006). Clinical and Laboratory Standards Institute document M7-A7.”
(In general: Dilution methods test growth across graded concentrations, often in twofold steps.)

The next assay relates to P. acnes 6390. The description is as above. Conditions: Cutibacterium acnes, representative pathogens for skin infections, read-out: Minimum Inhibitory Concentration (MIC) P. acnes 6390. As for the experimental part: as §1, with “(CLSI).” for “(CLSI). Clinical and Laboratory Standards Institute (CLSI; formerly NCCLS): Methods for Dilution Antimicrobial Susceptibility Tests for Bacteria That Grow Aerobically; Approved Standard—Seventh Edition (2006). Clinical and Laboratory Standards Institute document M7-A7.”

For another assay, the system named is S. aureus ATCC 25923. In words: Antimicrobial susceptibility testing (CLSI broth dilution MIC). Conditions: Staphylococcus aureus, ATCC25923. As for the experimental part:
(§2) Antimicrobial susceptibility testing was performed in accordance with the Clinical and Laboratory Standards Institute (CLSI).
(§3) Clinical and Laboratory Standards Institute (CLSI; formerly NCCLS): Methods for Dilution Antimicrobial Susceptibility Tests for Bacteria That Grow Aerobically; Approved Standard—Seventh Edition (2006). Clinical and Laboratory Standards Institute document M7-A7.

In a further assay the test system is S. aureus MRSA 101. Described as above. Conditions: Staphylococcus aureus. As for the experimental part: as §2, §3
A further assay deals with S. epidermidis MRSE 70. Described as above. Conditions: for MIC: Staphylococcus epidermidis, MRSE, representative pathogens for nasal colonization, read-out: Minimum Inhibitory Concentration (MIC) S. epidermidis MRSE 70. Here is the method: as §2, §3
The next assay relates to S. aureus MRSA 39. The assay is described as above. Conditions: for MIC: Staphylococcus aureus, MRSA, representative pathogens for nasal colonization, read-out: Minimum Inhibitory Concentration (MIC) S. aureus MRSA 39. As for the experimental part: as §2, §3
Another assay deals with E. faecalis VanB E80-8. Described as above. Conditions: for MIC: Enterococcus faecalis, VANBE808, representative pathogens for skin infections, read-out: Minimum Inhibitory Concentration (MIC) E. faecalis VanB E80-8; for Minimum Inhibitory Concentration (MIC) E. faecalis VanB E80-8: representative pathogens for gastro-intestinal infections. As for the experimental part:
as §2, §3

Where [1] appears, read: representative pathogens for nasal colonization, read-out: Minimum Inhibitory Concentration (MIC) S. aureus ATCC 25923.
The mark [2] stands for this setting: representative pathogens for ocular infections, read-out: Minimum Inhibitory Concentration (MIC) S. aureus 25923.
Setting [3] is: representative pathogens for nasal colonization, read-out: Minimum Inhibitory Concentration (MIC) S. aureus MRSA 101.
Setting [4] is: representative pathogens for ocular infections, read-out: Minimum Inhibitory Concentration (MIC) S. aureus MRSA101.
The mark [5] stands for this setting: representative pathogens for ocular infections.
Setting [6] is: representative pathogens for skin infections.

≈ marks a conversion by molar mass, not a printed value. Where two headings read alike, the source gives them in different places.

In the case of `FC(F)(F)c1cc(Br)cc(NC(=S)Nc2ccc(Cl)c(C(F)(F)F)c2)c1` [Example 3, 1-(3-Bromo-5-trifluoromethyl-phenyl)-3-(4-chloro-3-trifluoromethyl-phenyl)-thiourea], the MIC in the assay on S. pneumoniae 1/1 is 0.25 µg/mL (≈ 0.523 µM); in the assay with S. viridans UHC7, 1 µg/mL (≈ 2.09 µM); in the assay on S. pyogenes GAS-1, 0.25 µg/mL (≈ 0.523 µM); in the assay with B. distasonis 5770 it was 1 µg/mL (≈ 2.09 µM); in the assay on P. acnes 6390, at most 0.03 µg/mL; in the assay with S. aureus ATCC 25923 (setting [1]) it was 0.125 µg/mL (≈ 0.262 µM). Moreover, the MIC in the assay on S. aureus ATCC 25923 (setting [2]) came to 0.125 µg/mL (≈ 0.262 µM); in the assay on S. aureus MRSA 101 (setting [3]), 0.5 µg/mL (≈ 1.05 µM); in the assay with S. aureus MRSA 101 (setting [4]) it was 0.5 µg/mL (≈ 1.05 µM); in the assay with S. epidermidis MRSE 70, 0.25 µg/mL (≈ 0.523 µM); in the assay on S. aureus MRSA 39, 0.25 µg/mL (≈ 0.523 µM); in the assay on E. faecalis VanB E80-8 it was 1 µg/mL (≈ 2.09 µM). For the same molecule, the “Minimum Inhibitory Concentration (MIC) S. pyogenes GAS-1” value with S. pyogenes GAS-1 turned out to be 0.25 micrograms/ml. For the same molecule, the “Minimum Inhibitory Concentration (MIC) S. epidermidis MRSE 70” value in the assay on S. epidermidis MRSE 70 (setting [5]) and in the assay with S. epidermidis MRSE 70 (setting [6]) was 0.25 micrograms/ml throughout. Besides, the “Minimum Inhibitory Concentration (MIC) S. aureus MRSA 39” value in the assay with S. aureus MRSA 39 (setting [5]) and in the assay on S. aureus MRSA 39 (setting [6]) was 0.25 micrograms/ml throughout. For the same molecule, in the assay with E. faecalis VanB E80-8, the “Minimum Inhibitory Concentration (MIC) E. faecalis VanB E80-8” value worked out at 1 micrograms/ml.

For `O=C(Nc1cc(Cl)cc(C(F)(F)F)c1)Nc1ccc(Cl)c(C(F)(F)F)c1` [Example 2, 1-(3-Chloro-5-trifluoromethyl-phenyl)-3-(4-chloro-3-trifluoromethyl-phenyl)-urea], the MIC in the assay on S. pneumoniae 1/1 was 0.06 µg/mL (≈ 0.144 µM); in the assay with S. viridans UHC7, 0.5 µg/mL (≈ 1.2 µM); in the assay with S. pyogenes GAS-1, 0.25 µg/mL (≈ 0.599 µM); with B. distasonis 5770, 1 µg/mL (≈ 2.4 µM); with P. acnes 6390, at most 0.03 µg/mL; with S. aureus ATCC 25923 (setting [1]), 0.25 µg/mL (≈ 0.599 µM). Besides, the MIC was determined as 0.25 µg/mL (≈ 0.599 µM) in the assay with S. aureus ATCC 25923 (setting [2]); 0.125 µg/mL (≈ 0.3 µM) with S. aureus MRSA 101 (setting [3]); 0.125 µg/mL (≈ 0.3 µM) in the assay on S. aureus MRSA 101 (setting [4]); 0.25 µg/mL (≈ 0.599 µM) with S. epidermidis MRSE 70; 0.25 µg/mL (≈ 0.599 µM) with S. aureus MRSA 39; 1 µg/mL (≈ 2.4 µM) in the assay on E. faecalis VanB E80-8. In addition, in the assay on S. pyogenes GAS-1, the “Minimum Inhibitory Concentration (MIC) S. pyogenes GAS-1” value was found to be 0.25 micrograms/ml. Besides, the “Minimum Inhibitory Concentration (MIC) S. epidermidis MRSE 70” value in the assay on S. epidermidis MRSE 70 (setting [5]) and in the assay on S. epidermidis MRSE 70 (setting [6]) was 0.25 micrograms/ml in each case. For the same molecule, the “Minimum Inhibitory Concentration (MIC) S. aureus MRSA 39” value in the assay on S. aureus MRSA 39 (setting [5]) and in the assay on S. aureus MRSA 39 (setting [6]) was 0.25 micrograms/ml each time. In addition, the “Minimum Inhibitory Concentration (MIC) E. faecalis VanB E80-8” value in the assay with E. faecalis VanB E80-8 was 1 micrograms/ml.

Regarding `O=C(Nc1cc(Br)cc(C(F)(F)F)c1)Nc1ccc(Cl)c(C(F)(F)F)c1` [Example 1, 1-(3-Bromo-5-trifluoromethyl-phenyl)-3-(4-chloro-3-trifluoromethyl-phenyl)-urea], the MIC in the assay on S. pneumoniae 1/1 is 0.125 µg/mL (≈ 0.271 µM); with S. viridans UHC7, 0.5 µg/mL (≈ 1.08 µM); with S. pyogenes GAS-1, 0.25 µg/mL (≈ 0.542 µM); with B. distasonis 5770, 0.5 µg/mL (≈ 1.08 µM); in the assay with P. acnes 6390, at most 0.03 µg/mL; with S. aureus ATCC 25923 (setting [1]) it was 0.5 µg/mL (≈ 1.08 µM). In addition, the MIC in the assay with S. aureus ATCC 25923 (setting [2]) amounted to 0.5 µg/mL (≈ 1.08 µM); in the assay with S. aureus MRSA 101 (setting [3]), 0.125 µg/mL (≈ 0.271 µM); with S. aureus MRSA 101 (setting [4]), 0.125 µg/mL (≈ 0.271 µM); in the assay with S. epidermidis MRSE 70, 0.25 µg/mL (≈ 0.542 µM); with S. aureus MRSA 39 it was 0.25 µg/mL (≈ 0.542 µM); with E. faecalis VanB E80-8, 2 µg/mL (≈ 4.33 µM). Further, the “Minimum Inhibitory Concentration (MIC) S. pyogenes GAS-1” value in the assay on S. pyogenes GAS-1 was 0.25 micrograms/ml. The “Minimum Inhibitory Concentration (MIC) S. epidermidis MRSE 70” value in the assay with S. epidermidis MRSE 70 (setting [5]) and with S. epidermidis MRSE 70 (setting [6]) was 0.25 micrograms/ml each time. Besides, the “Minimum Inhibitory Concentration (MIC) S. aureus MRSA 39” value with S. aureus MRSA 39 (setting [5]) and in the assay with S. aureus MRSA 39 (setting [6]) was 0.25 micrograms/ml each time. In addition, the “Minimum Inhibitory Concentration (MIC) E. faecalis VanB E80-8” value in the assay with E. faecalis VanB E80-8 is on record as 2 micrograms/ml.

(Values after patent publication US20090023813A1, “Diphenyl Urea Derivatives” (Arpida AG, priority 2005, published 2009).)
